Series [1] deals with Rat. As to the kind of experiment: Maximal electroshock seizure (MES) test, rat (po). Type of series: in vivo. Particulars: for ED50: read-out: Rat (po) MES, ED50. Background: Protection in the maximal electroshock model is a classic sign of anticonvulsant action.
Description: (§2) The maximal electroconvulsive shock (MES) test is regarded as a standard screen for anticonvulsant activity in terms of inhibition of seizure spread in generalized tonic-clonic seizures.
(§3) Groups of at least 8 male albino CF No. 1 mice or male albino Sprague-Dawley rats are treated with 10 mL/kg i.p. or 4 mL/kg p.o. of the test compound solution, respectively. The electrical stimulus in the MES test is 50 mA at 60 Hz for mice and 150 mA at 60 Hz for rats, both delivered for 0.2 sec. Abolition of the hind leg tonic extensor component of the seizure is used as the endpoint.
Series [2] deals with Mice. As to the kind of experiment: Formalin test (mice, ip). The class given is in vivo. Particulars: for Formalin Assay Acute (%) / Formalin Assay Inflam. (%): mice, ip. The procedure: Compounds of the present invention were active in treating pain in a formalin test carried out in accordance with standard techniques, as described in S. Hunskaar et al., J. Neurosci. Methods 14: 69-76 (1985). Briefly, 0.5% formalin is injected into the mouse hind paw to elicit a bi-phasic licking response, where the first acute phase is thought to correspond to the direct stimulation of peripheral fibers and the second (inflammatory) phase is caused by the release of inflammatory mediators.
Spinal/supraspinal plasticity of nociception is considered as a molecular basis for neuropathic pain particularly during the second (late) phase of the test (Dubuisson & Dennis, 1977; Coderre et al., 1990; Coderre & Melzack, 1992), during which most clinically used drugs against neuropathic pain are active.

The subject of series [3] is Mice. In words: Maximal electroshock seizure (MES) test, mice (ip).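 Also: male albino CF No. 1 mice dosed ip, MES stimulus 50 mA at 60 Hz lasting 0.2 s, efficacy endpoint is loss of hind leg tonic extension.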
Description: as §2, §3
The nature of series [4]: Neurological toxicity, rotorod test, mice (ip). The class given is in vivo. Particulars: male, CF No 1, mouse, in vivo. The procedure: (§1) Tests are conducted in groups of at least 8 mice or rats to determine the intrinsic neurotoxicity (neuromuscular impairment) after administration of the test compound by the route of administration to be used in the pharmacology studies. Neurotoxicity is determined in male CF No 1 mice by the rotarod procedure. Inability of the mouse to maintain its equilibrium in 3 trials during 1 min on this rotating rod (6 rpm) is used as an indication of such impairment. In Sprague-Dawley rats, minimal motor impairment (MMI) is determined by overt evidence of ataxia, abnormal gait, and stance.

In series [5] the test system is Rat. As to the kind of experiment: Behavioral toxicity, rat (po). The class given is in vivo. Particulars: behavioral toxicity. The procedure: as §1
Series [6] relates to Mice. As to the kind of experiment: Neurological toxicity, rotorod test, mice (ip). The class given is in vivo. Particulars: for Mice (ip) Tox, TD50: Table b500, rotorod test; for Mice (ip) Tox, Td50: rotorod test. The procedure: as §1
Background: The rotarod test checks motor coordination on a turning rod.

Series [7] relates to Rats. In words: Hippocampal kindling test, rats (ip). Particulars: Rattus norvegicus, ip, read-out: Hippocampal Kindled Rats (ip) ED50 (interval). Type of series: in vivo. The procedure: The kindling model provides a tool to predict a test compound's activity in complex partial seizures.
Male albino Sprague-Dawley rats (n=8) are kindled to a Stage 5 behavioral seizure. They are treated with an appropriate i.p. dose of the test compound after a 1-week, stimulus-free period. The test compound is evaluated for its effect on kindled motor seizures (seizures scores of 4 and 5), limbic behavior seizures (seizure scores between 1 and 3) and after-discharge duration. After 15 min, each rat is stimulated every 30 min for 3-4 h. Following each stimulation, individual seizure scores and after-discharge duration are recorded. The group mean and standard error of the mean (SEM) are calculated for each parameter.

The mark [8] stands for this setting: rotorod test, read-out: Mice (ip) Tox, TD50.
Setting [9] is: Table b502, protective index (TD50/ED50).
The mark [10] stands for this setting: rotorod test, read-out: Mice (ip) Tox, Td50.

Like-named read-outs stand apart in the source and are kept apart here.

In general, melting point refers to the temperature, or range, at which the solid turns liquid. As for `COC[C@@H](NC(C)=O)C(=O)NCc1ccc(N=[N+]=[N-])cc1` [(R)-5, (R)—N-(4-Azidobenzyl)-2-acetamido-3-methoxypropanamide], the melting point is 149 to 150 °C. Further, the “Rat (po) PI” value in series [1] (PI=TD50/ED50) is recorded as more than 64. Besides, in series [2] (dose 8.0 (mg)), the “Formalin Assay Acute (%)” value was determined as 59% and the “Formalin Assay Inflam. (%)” value amounted to 106%. For the same compound, the “Mice (ip) PI” value in series [3] (ip, PI=TD50/ED50) was found to be 5.5.
The compound `CC(=O)N[C@H](C)C(=O)NCc1ccc(OCc2cccc(F)c2)cc1` showed a melting point of 158 °C.
For orientation: TD50 means the 50% point of the dose-response relation for the toxic effect studied. Turning to `CC(=O)NC(C(=O)NCc1ccc(OCc2cccc(F)c2)cc1)c1ccccn1` (racemic) [(R, S)-9, N-4-(3-Fluorobenzyloxy)benzyl 2-Acetamido-2-(pyridin-2-yl)acetamide], the melting point lay within 154 to 155 °C. Further, the TD50 in series [4] (setting [8]) amounted to 210 mg/kg. In addition, the “Rat (po) Tox, TD50” value in series [5] (Table b500, orally) was >30 [4] mg/kg.
In turn, `COC[C@H](NC(C)=O)C(=O)NCc1ccc(N=[N+]=[N-])cc1` [(S)-5, (S)—N-(4-Azidobenzyl)-2-acetamido-3-methoxypropanamide] had a melting point of 149 to 150 °C. Also, the TD50 in series [4] (read-out: Mice (ip) Tox, TD50) is more than 300 mg/kg.
For the compound `CC(=O)N[C@@H](C)C(=O)NCc1ccc(OCc2cccc(F)c2)cc1` [(S)-6, (S)—N-4-(3-Fluorobenzyloxy)benzyl 2-Acetamidopropionamide], the melting point lay within 153 to 154 °C. Further, the “Mice (ip) Tox, TD50” value in series [6] was >300 [0.5] mg/kg. The “Rat (po) Tox, TD50” value in series [5] (Table b500, orally) is >30 [0.25 to mg/kg.
Turning to `CC(=O)NC(C(=O)NCc1ccc(C)cc1)c1ccccc1` (centres unmarked) [D, reference compound], the “MES ED50” value in series [3] (ip) is approximately 300 mg/kg.
Broadly, the ED50 is the dose that gives a 50% effect, or the effect in half of the subjects. In the case of `CCC1(c2ccccc2)C(=O)NC(=O)NC1=O` [phenobarbital], the ED50 in series [7] is 20 mg/kg.
As for `COC[C@@H](NC(C)=O)C(=O)NCc1ccc(COCc2cccc(F)c2)cc1` [(R)-18, (R)—N-4-(((3-Fluoro)benzyloxy)methyl)benzyl 2-Acetamido-3-methoxypropionamide], in series [6], the “Mice (ip) Tox, Td50” value was >30, <100 [0.5] mg/kg. Besides, in series [3] (Table b501, intraperitoneally), the “Mice (ip) MES, ED50” value was >30, <100 [0.5] mg/kg.
Take `COC[C@@H](NC(C)=O)C(=O)NCc1ccc(OCc2ccc(F)cc2)cc1` [(R)-22, (R)—N-4-(4-Fluorobenzyloxy)benzyl 2-Acetamido-3-methoxypropionamide]: the melting point was 166 to 167 °C. Also, in series [1] (setting [9]), the “Rat (po) PI” value is more than 86. Further, in series [4] (setting [8]), the TD50 was in the range of 30 to 100 mg/kg. The “Mice (ip) MES, ED50” value in series [3] (Table b502, intraperitoneally) was >10, <30 [0.5] mg/kg.
As to `COCCCc1ccc(CNC(=O)[C@@H](COC)NC(C)=O)cc1`, the melting point is 105 to 107 °C.
`COC[C@@H](NC(C)=O)C(=O)NCc1ccc(NCc2cccc(F)c2)cc1` [(R)-17, (R)—N-4-(3-Fluorobenzylamino)benzyl 2-Acetamido-3-methoxypropionamide]: the melting point was in the range of 78 to 81 °C. For the same compound, the TD50 in series [4] (setting [10]) lay within 30 to 100 mg/kg. The “Mice (ip) MES, ED50” value in series [3] (Table b501, intraperitoneally) was >10, <30 [0.5] mg/kg.
Take `CC(=O)NC(C(=O)NCc1ccccc1)c1ccccc1` (centres unmarked) [C, reference compound]: in series [3] (ip), the “MES ED50” value was 32 mg/kg.
With `COCc1ccc(CNC(=O)[C@@H](COC)NC(C)=O)cc1`, the melting point was 119 to 120 °C.
In turn, `COC[C@@H](NC(C)=O)C(=O)NCc1ccc(CCc2cccc(F)c2)cc1` [(R)-13] yielded a melting point of 134 to 136 °C. The TD50 in series [4] (setting [10]) was 30 to 100 mg/kg. Also, in series [5] (Table b501, orally), the “Rat (po) Tox, TD50” value was >30 [1] mg/kg. Moreover, in series [3] (Table b501, intraperitoneally), the “Mice (ip) MES, ED50” value was >10, <30 [0.5] mg/kg.
In turn, `COC[C@@H](NC(C)=O)C(=O)NCc1ccc(OCc2ccccc2F)cc1` [(R)-21, (R)—N-4-(2-Fluorobenzyloxy)benzyl 2-Acetamido-3-methoxypropionamide] displayed a melting point of 173 to 174 °C. Also, in series [1] (setting [9]), the “Rat (po) PI” value is listed as more than 45. The TD50 in series [4] (setting [8]) came to 37 mg/kg. In addition, the “Mice (ip) MES, ED50” value in series [3] (Table b502, intraperitoneally) was 6.7 [0.25] (4.8-9.1) mg/kg.
As for `COC[C@@H](NC(C)=O)C(=O)NCc1ccc([N+](=O)[O-])cc1` [F, reference compound], the “MES ED50” value in series [3] (ip) was >100, <300 mg/kg.
As to `COC[C@H](NC(C)=O)C(=O)NCc1ccc(OCc2cccc(F)c2)cc1` [(S)-3, (S)-2-Acetamido-N-(4-(3-fluorobenzyloxy)benzyl)-3-methoxypropanamide], the “Mice (ip) MES, ED50” value in series [3] (ip) is >300 [0.5].
Compound `CC(=O)N[C@@H](C(=O)NCc1ccc(OCc2cccc(F)c2)cc1)C(C)(C)C` showed a melting point of 64 to 66 °C.
`COC[C@@H](NC(C)=O)C(=O)NCc1ccc(C#Cc2cccc(F)c2)cc1` [(R)-15, (R)—N-4-((3-Fluorophenyl)ethynyl)benzyl 2-Acetamido-3-methoxypropionamide] returned a melting point of 200 to 202 °C. The 50% effective dose (ED50) in series [1] (orally) is 1.4 mg/kg. Further, the TD50 in series [4] (setting [10]) was in the range of 100 to 300 mg/kg. In series [3] (Table b501, intraperitoneally), the “Mice (ip) MES, ED50” value is >30, <100 [1.0, 4.0] mg/kg.
With `COC[C@@H](NC(C)=O)C(=O)NCc1ccccc1` [H, reference compound], in series [2] (dose 16 (mg)), the “Formalin Assay Acute (%)” value came to 100% and the “Formalin Assay Inflam. (%)” value stood at 44%.
As to `COC[C@H](NC(C)=O)C(=O)NCc1ccc(OCc2cccc(F)c2)cc1` [(S)-10, (S)-2-Acetamido-N-(4-(3-fluorobenzyloxy)benzyl)-3-methoxypropanamide], in series [6], the “Mice (ip) Tox, TD50” value is reported as more than 300 mg/kg. The “Mice (ip) Mes, ED50” value in series [3] (Table b500, intraperitoneally) is listed as more than 300 mg/kg.
In the case of `COC[C@@H](NC(C)=O)C(=O)NCc1ccc(OCc2ccccc2)cc1` [(R)-20, (R)—N-4′-(Benzyloxy)benzyl 2-N-Acetamido-3-methoxypropionamide], the melting point was 149 °C. Besides, the median effective dose (ED50) in series [1] (Rattus norvegicus, Table b502, orally) is 5.6 mg/kg. Moreover, the “Rat (po) PI” value in series [1] (setting [9]) was more than 45. The TD50 in series [4] (setting [8]) came to 22 mg/kg. In series [5] (Table b502, orally), the “Rat (po) Tox, TD50” value was >250 [1.0] mg/kg. For the same compound, the “Mice (ip) MES, ED50” value in series [3] (Table b502, intraperitoneally) is 5.8 [0.25] (4.4-7.2) mg/kg. Also, in series [3] (Table b502, ip, protective index (TD50/ED50)), the “Mice (ip) PI” value turned out to be 3.8.
In the case of `COC[C@@H](NC(C)=O)C(=O)NCc1ccc(COc2cccc(F)c2)cc1` [(R)-16, (R)—N-4-((3-Fluorophenoxy)methyl)benzyl 2-Acetamido-3-methoxypropionamide], the “Rat (po) PI” value in series [1] (Table b501, protective index (TD50/ED50)) is listed as more than 21. Also, in series [6], the “Mice (ip) Tox, Td50” value was 10 [0.25] mg/kg. Moreover, in series [3] (Table b501, intraperitoneally), the “Mice (ip) MES, ED50” value was 5.9 [0.25] mg/kg. For the same compound, the “Mice (ip) PI” value in series [3] (Table b501, ip, protective index (TD50/ED50)) is 1.8.
Consider `CC(=O)NCC(=O)NCc1ccc(OCc2cccc(F)c2)cc1` [compound 5, N-4-(3-Fluorobenzyloxy)benzyl 2-Acetamidoacetamide], for which the “Rat (po) PI” value in series [1] (Table b500, protective index (TD50/ED50)) was more than 16. In addition, the “Rat (po) Tox, TD50” value in series [5] (Table b500, orally) was >500 [1.0] mg/kg.
Regarding `COC[C@@H](NC(C)=O)C(=O)NCc1ccc(OCCc2cccc(F)c2)cc1` [(R)-19, (R)—N-4′-((3″-Fluoro)phenethoxy)benzyl 2-N-Acetamido-3-methoxypropionamide], the melting point was 147 to 148 °C. In series [4] (setting [10]), the TD50 fell in the range of 30 to 100 mg/kg. Moreover, the “Mice (ip) MES, ED50” value in series [3] (Table b501, intraperitoneally) is >30, <100 [0.5, 4.0] mg/kg.
As to `COC[C@@H](NC(C)=O)C(=O)NCc1ccccc1` [(R)-B, (2R)-2-(acetylamino)-N-benzyl-3-methoxypropanamide, reference compound], the “Formalin Test (mice, ip) Inflammatory (%)” value in series [2] (duration of licking as percent of control, late phase, dose 5 mg/kg) is 31 [<0.01] %. In addition, in series [7], the median effective dose (ED50) was found to be 14 mg/kg.
